Assay results reported in patent US20250230151A1, “COMPOUNDS FOR CANCERS DRIVEN BY BRAF MUTATION” (THE BOARD OF TRUSTEES OF THE UNIVERSITY OF ILLINOIS, priority 2021, published 2025).
Read-outs that look alike come from different tables or passages of the source.

Columns and labels:
[1] = tested on: V600EBRAF melanoma cell lines; assay: Cell viability, panel of V600E BRAF melanoma cell lines; type: cell-based; conditions: range over the panel; read-out: IC50 values against a panel of V600EBRAF melanoma cell lines
Experimental: (§1) Cell Culture and reagents. All cell lines were grown in a 37° C., 5% CO2, humidified environment, in media containing 1% penicillin/streptomycin. Cell culture conditions are as follows: MDCK cells transfected with MDR1 (or ABCB1) were obtained from the Netherlands Cancer Institute (Amsterdam, The Netherlands) and maintained in DMEM with 10% fetal bovine serum (FBS, Gemini). Traditional cell lines A375, CHL-1, B16F10, and U118MG were grown in DMEM with 10% FBS, SK-MEL-28, U87 and T98G in EMEM with 10% FBS, AM-38 in EMEM with 20% HI-FBS (Gibco), HT29 in McCoy's 5A with 10% FBS, HCT116 in RPMI with 10% FBS. Compounds were dissolved in DMSO (1% final concentration, Sigma-Aldrich) for cell culture studies.
(§2) Cell viability assays. Cells were harvested, seeded in a 96-well plate and allowed to adhere overnight. Compound was added to each well in DMSO (1% final concentration). Cells were incubated for 72 hours before viability was assessed by the Alamar Blue Assay. Raptinal ([…]) was used as a dead control.

cell lines with WTBRAF = assay: Cell viability, cell lines with WT BRAF; type: cell-based
Experimental: as §1, §2

[2] = Pharmacokinetics in CD-1 mice, serum by LC-MS/MS; type: in vivo, mouse
[3] = tested on: A375 melanoma cells intracranially implanted; assay: A375 intracranial mouse model of melanoma metastasis; type: in vivo; conditions: 50 mg/kg IP once a day, two 5-day cycles, 10 doses
Experimental: Number of mice per cohort n>3. […] (C) Evaluation of everafenib in an intracranial mouse model. 50,000 A375 melanoma cells were intracranially implanted into 7-week old female athymic nude mice. Five days after inoculation, mice were treated with the vehicle or 50 mg/kg of dabrafenib or everafenib intraperitoneal (IP) once a day for 5 days. After 2 days off, another five daily doses were administered, a total of 10 treatments in the model. Cells were tested to be free of pathogens prior to inoculation. […] Number of mice per cohort=6. Statistical significance was determined by a two-tailed log-rank (Mantel-Cox) test. **P<0.01 ***P<0.001 ****P<0.0001.
Such a model has been developed using intracranial implantation of the A375 melanoma cell line, and thus, this macro-metastatic model via injection of A375 cells to the mouse forebrain was used to assess everafenib and dabrafenib head-to-head. In the experiment, mice were intracranially implanted with A375 cells and then 5 days later were treated with 50 mg/kg of dabrafenib or everafenib (two cycles of once-per-day for 5 days via IP injection, a total of 10 doses).
In vivo efficacy model. […] Human melanoma A375 cells were intracranially implanted in 7-week-old female athymic nude mice (50,000 cells/mouse). Cells were tested to be free of pathogens prior to inoculation. […]

[4] = tested on: MAPK signaling (phospho-MEK1/2, phospho-ERK1/2) in AM-38 cells; assay: Immunoblotting of MEK1/2 and ERK1/2 phosphorylation, AM-38; type: cell-based; conditions: AM-38, 1 h of treatment
Experimental: Immunoblotting. Cells were lysed using RIPA buffer containing phosphatase (BioVision) and protease inhibitor cocktail (Calbiochem). Protein concentration was determined using the BCA assay (Pierce). Cell lysates containing […] of protein were loaded into each lane of 4% to 20% gradient gels (Bio-Rad) for SDS-PAGE. Proteins were transferred onto PDVF membrane for Western blot analysis. Blots were blocked with BSA for one hour followed by incubation with primary antibody overnight (dilution according to manufacturer's protocols), and then secondary antibody was incubated for one hour. Blots were then imaged with a ChemiDoc Touch (Bio-Rad) after incubation with SuperSignal West Pico Solution (ThermoFischer) following manufacturer's protocols. All antibodies were purchased from Cell Signaling Technology: p-ERK (9101S), ERK (4695S), p-MEK (9121S), MEK (8727S), vinculin (13901S) Rabbit IgG-HRP (7074), […] (5125).

P-gp = biological target: T1, P-gp (Homo sapiens, UniProt P08183); conditions: background statement on dabrafenib; cited from earlier work
T1 construct: host or cells: MDCK (MDR1-MDCK)

[5] = tested on: melanoma brain metastatic lesions; conditions: combined with trametinib, clinical trials; cited from earlier work
[6] = 20 mg/kg IP, CD-1 mice, one-compartment model, listed as 261
[7] = 20 mg/kg IP, CD-1 mice, one-compartment model, listed as everafenib
[8] = CD-1, mouse, serum, intraperitoneal, 20 mg/kg IP, read-out: [Drug] serum concentration
[9] = CD-1, mouse, serum, 25 mg/kg IV, read-out: [Drug] serum concentration

T1 sequence (P08183 whole entry): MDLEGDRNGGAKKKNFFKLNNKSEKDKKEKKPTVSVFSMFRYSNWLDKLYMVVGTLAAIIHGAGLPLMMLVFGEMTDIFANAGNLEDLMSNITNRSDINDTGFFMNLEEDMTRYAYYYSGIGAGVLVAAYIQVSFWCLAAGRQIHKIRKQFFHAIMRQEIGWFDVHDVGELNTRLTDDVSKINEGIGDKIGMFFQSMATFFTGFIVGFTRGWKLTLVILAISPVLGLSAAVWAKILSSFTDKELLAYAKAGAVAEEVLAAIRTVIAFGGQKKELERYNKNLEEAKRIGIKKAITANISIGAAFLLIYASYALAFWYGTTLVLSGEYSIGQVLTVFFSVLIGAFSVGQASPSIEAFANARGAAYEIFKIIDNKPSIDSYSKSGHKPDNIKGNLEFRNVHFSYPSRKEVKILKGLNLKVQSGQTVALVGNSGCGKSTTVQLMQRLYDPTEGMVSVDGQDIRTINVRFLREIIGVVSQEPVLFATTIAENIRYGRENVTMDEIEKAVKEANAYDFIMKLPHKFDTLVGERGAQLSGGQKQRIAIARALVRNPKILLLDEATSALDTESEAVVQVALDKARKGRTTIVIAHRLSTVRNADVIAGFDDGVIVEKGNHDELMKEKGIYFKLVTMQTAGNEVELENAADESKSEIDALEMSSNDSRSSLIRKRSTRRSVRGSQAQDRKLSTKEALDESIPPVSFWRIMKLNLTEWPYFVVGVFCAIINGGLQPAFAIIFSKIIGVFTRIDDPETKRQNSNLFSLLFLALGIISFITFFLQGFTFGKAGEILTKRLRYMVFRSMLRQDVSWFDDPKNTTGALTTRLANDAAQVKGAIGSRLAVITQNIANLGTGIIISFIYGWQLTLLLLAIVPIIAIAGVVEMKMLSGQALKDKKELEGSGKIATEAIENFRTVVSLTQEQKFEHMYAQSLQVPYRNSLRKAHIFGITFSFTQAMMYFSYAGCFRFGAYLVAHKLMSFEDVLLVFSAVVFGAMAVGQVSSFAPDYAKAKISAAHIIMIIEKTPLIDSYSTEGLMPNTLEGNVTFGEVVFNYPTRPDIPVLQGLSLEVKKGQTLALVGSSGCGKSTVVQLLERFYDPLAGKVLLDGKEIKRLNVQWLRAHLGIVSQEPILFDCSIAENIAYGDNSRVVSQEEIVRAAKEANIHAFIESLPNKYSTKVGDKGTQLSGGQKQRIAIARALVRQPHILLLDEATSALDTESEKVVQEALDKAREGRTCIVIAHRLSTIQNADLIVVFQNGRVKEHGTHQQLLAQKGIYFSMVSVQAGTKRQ

Structure (SMILES): CCCS(=O)(=O)Nc1cc(Cl)cc(-c2nc(C(C)(C)C)sc2-c2ccnc(N)n2)c1F [6-261, N-(3-(5-(2-aminopyrimidin-4-yl)-2-(tert-butyl)thiazol-4-yl)-5-chloro-2-fluorophenyl)propane-1-sulfonamide]
- IC50 [1]: 2 to 10 nM
- IC50 (cell lines with WTBRAF): > 1000 nM
- activity against glioma cell-lines with WTBRAF (U118MG, T98G, U87) (cell lines with WTBRAF; cell culture): no activity
- AUC [2, 6]: 503964.63 ng·min/mL
- CL [2, 6]: 39.69 mL/min/kg
- Cmax [2, 6]: 9364.7721 ng/mL
- T1/2 [2, 6]: 37.3 min
- Vss [2, 6]: 2.6929321 L/kg
- CL [2, 7]: 39.7 mL/min/kg
- Vss [2, 7]: 2.6929 L/kg
- concentration at 0 min ([2]; CD-1, mouse, serum, intraperitoneal, 20 mg/kg IP, 0 min, read-out: [Drug] serum concentration): 0 nM
- concentration at 15 min [2, 8]: 12.9 ± 0.557 µM
- concentration at 30 min ([2]; CD-1, mouse, serum, intraperitoneal, 20 mg/kg IP, 30 min, read-out: [Drug] serum concentration): 9.46 ± 0.621 µM
- concentration at 45 min ([2]; CD-1, mouse, serum, intraperitoneal, 20 mg/kg IP, 45 min, read-out: [Drug] serum concentration): 6.7 ± 0.122 µM
- concentration at 60 min [2, 8]: 5.59 ± 0.167 µM
- concentration at 120 min ([2]; CD-1, mouse, serum, intraperitoneal, 20 mg/kg IP, 120 min, read-out: [Drug] serum concentration): 2.55 ± 0.194 µM
- concentration at 240 min ([2]; CD-1, mouse, serum, intraperitoneal, 20 mg/kg IP, 240 min, read-out: [Drug] serum concentration): 0.581 ± 0.118 µM
- concentration at 480 min ([2]; CD-1, mouse, serum, intraperitoneal, 20 mg/kg IP, 480 min, read-out: [Drug] serum concentration): 0.014 ± 0.00207 µM
- concentration at 960 min ([2]; CD-1, mouse, serum, intraperitoneal, 20 mg/kg IP, 960 min, read-out: [Drug] serum concentration): 0 nM
- half-life ([2]; CD-1, mouse, serum, ip, 20 mg/kg, 20 mg/kg IP, CD-1 mice, one-compartment model): 37.3 min
- AUC ([2]; CD-1, mouse, serum, ip, 20 mg/kg, 20 mg/kg IP, CD-1 mice, one-compartment model, read-out: AUC (converted)): 504000 ng·min/mL
- Cmax ([2]; CD-1, mouse, serum, ip, 20 mg/kg, 20 mg/kg IP, CD-1 mice, one-compartment model, read-out: Cmax): 9360 ng/mL
- concentration at 15 min [2, 9]: 16.4 ± 0.719 µM
- concentration at 60 min [2, 9]: 6.56 ± 0.29 µM
- median survival [3]: 50.5 days
- inhibition of MAPK signaling (MEK1/2 and ERK1/2 phosphorylation) [4]: strongly inhibited

Structure (SMILES): CC(C)(C)c1nc(-c2cccc(NS(=O)(=O)c3c(F)cccc3F)c2F)c(-c2ccnc(N)n2)s1 [Dabrafenib, reference compound]
- median survival [3]: 39 days
- efflux ratio (recognized by P-gp) (P-gp): 11.4-18.3
- duration of intracranial response [5]: 6.5 months

Structure (SMILES): CCCS(=O)(=O)Nc1cc(Cl)cc(-c2nc(C(C)(C)C)sc2-c2ccnc(NCCCCC(=O)O)n2)c1F [6-263, 5-((4-(2-(tert-butyl)-4-(5-chloro-2-fluoro-3-(propylsulfonamido)phenyl)thiazol-5-yl)pyrimidin-2-yl)amino)pentanoic acid]
- IC50 (cell lines with WTBRAF): > 1000 nM
- inhibition of MAPK signaling (MEK1/2 and ERK1/2 phosphorylation) [4]: strongly inhibited
